Results reported in ChEMBL document CHEMBL5385942, “C3-Symmetric ligands in drug design: An overview of the challenges and opportunities ahead” (Bioorg Med Chem Lett, 2024).
pEC50, pIC50: −log10 of the molar value.

Columns and labels:
[1] = Growth inhibition of human NCI cells; assay type: functional
[2] = test system: Human betaherpesvirus 5; test: Antiviral activity against HCMV infected in HFF cells assessed as reduction in viral replication; assay type: functional, organism-based; settings: Human betaherpesvirus 5, HFF
[3] = test system: Bacillus subtilis; test: Antimicrobial activity against Bacillus subtilis MTCC 441 assessed as zone of inhibition by […]; assay type: functional; as to IZ: test concentration or dose not given here
[4] = test system: Staphylococcus aureus; test: Antimicrobial activity against Staphylococcus aureus MTCC 96 assessed as zone of inhibition by […]; assay type: functional
[5] = test system: Micrococcus luteus; test: Antimicrobial activity against Micrococcus luteus ATCC 9341 assessed as zone of inhibition by […]; assay type: functional; as to IZ: test concentration or dose not given here
[6] = test system: HepG2; test: Cytotoxicity against human HepG2 cells assessed as inhibition of cell growth incubated for 24 to 48 hrs by MTT assay; assay type: functional, cell-based
[7] = test system: MDA-MB-468; test: Antiproliferative activity against human MDA-MB-468 cells assessed as inhibition of cell growth; assay type: functional, cell-based
[8] = test system: Escherichia coli; test: Antimicrobial activity against Escherichia coli ATCC 25922 assessed as zone of inhibition by […]; assay type: functional
[9] = test system: HeLa; test: Cytotoxicity against human HeLa cells assessed as inhibition of cell growth incubated for 24 hrs by MTT assay; assay type: functional, cell-based
[10] = test system: A549; test: Antiproliferative activity against human A549 cells assessed as inhibition of cell growth incubated for 24 hrs by SRB assay; assay type: functional, cell-based; settings: A549, 24 h
[11] = test system: T47D; test: Antiproliferative activity against human T47D cells assessed as inhibition of cell growth incubated for 24 hrs by SRB assay; assay type: functional, cell-based
[12] = test system: LNCaP; test: Antiproliferative activity against human LNCaP cells assessed as inhibition of cell growth incubated for 24 hrs by SRB assay; assay type: functional, cell-based
[13] = test system: Jurkat; test: Antiproliferative activity against human Jurkat cells assessed as inhibition of cell growth incubated for 24 hrs by SRB assay; assay type: functional, cell-based
[14] = Antiproliferative activity against human SW707 cells assessed as inhibition of cell growth incubated for 24 hrs by SRB assay; assay type: functional, cell-based; settings: SW707, 24 h
[15] = test system: MCF7; test: Antiproliferative activity against human MCF7 cells assessed as inhibition of cell growth incubated for 24 hrs by SRB assay; assay type: functional, cell-based; settings: MCF7, 24 h
[16] = test system: Pseudomonas aeruginosa; test: Antimicrobial activity against Pseudomonas aeruginosa MTCC 741 assessed as zone of inhibition by […]; assay type: functional, organism-based

Row | Structure (SMILES) | inhibition zone (IZ) [3] | inhibition zone (IZ) [4] | inhibition zone (IZ) [5] | further results
1 | c1ccc(Nc2nc(Nc3ccccn3)nc(Nc3ccccn3)n2)nc1 | – | – | – | GI50 [1]: 49800 nM
2 | C[C@@H]1CCC2[C@@H](C)[C@H](OC(=O)CCC(=O)OCC(COC(=O)CCC(=O)O[C@@H]3O[C@@H]4O[C@]5(C)CC[C@H]6[C@H](C)CCC([C@H]3C)[C@@]46OO5)COC(=O)CCC(=O)O[C@@H]3O[C@@H]4O[C@]5(C)CC[C@H]6[C@H](C)CCC([C@H]3C)[C@@]46OO5)O[C@@H]3O[C@]4(C)CC[C@@H]1[C@@]23OO4 (stereo not given in full) | – | – | – | pEC50 [2]: 6.28
3 | NC(=S)N1N=C(c2ccc(Oc3nc(Oc4ccc(C5=NN(C(N)=S)C(c6ccccc6)C5)cc4)nc(Oc4ccc(C5=NN(C(N)=S)C(c6ccccc6)C5)cc4)n3)cc2)CC1c1ccccc1 (stereo not given) | 11 mm | 13 mm | 15 mm | –
4 | NC(=S)N1N=C(c2ccc(Oc3nc(Oc4ccc(C5=NN(C(N)=S)C(c6ccc(Cl)cc6)C5)cc4)nc(Oc4ccc(C5=NN(C(N)=S)C(c6ccc(Cl)cc6)C5)cc4)n3)cc2)CC1c1ccc(Cl)cc1 (stereo not given) | 10 mm | 11 mm | 18 mm | –
5 | O=C(N/N=C\c1ccc(N(CCCl)CCCl)cc1)c1cc(C(=O)N/N=C\c2ccc(N(CCCl)CCCl)cc2)cc(C(=O)N/N=C/c2ccc(N(CCCl)CCCl)cc2)c1 | – | – | – | IC50 [6]: 25 µmol
6 | Cc1ccc(C2CC(c3ccc(Oc4nc(Oc5ccc(C6=NN(C(N)=S)C(c7ccc(C)cc7)C6)cc5)nc(Oc5ccc(C6=NN(C(N)=S)C(c7ccc(C)cc7)C6)cc5)n4)cc3)=NN2C(N)=S)cc1 (stereo not given) | 9 mm | 11 mm | 20 mm | –
7 | c1ccc(Sc2nc(Sc3ccccn3)nc(Sc3ccccn3)n2)nc1 | – | – | – | pIC50 [7]: 3.67; GI50 [1]: 3170 nM
8 | c1ccc(Sc2nc(Sc3ccccc3)nc(Sc3ccccc3)n2)cc1 | – | – | – | GI50 [1]: > 100000 nM
9 | O=C(/C=C/c1ccccc1)c1ccc(Oc2nc(Oc3ccc(C(=O)/C=C/c4ccccc4)cc3)nc(Oc3ccc(C(=O)/C=C/c4ccccc4)cc3)n2)cc1 | 7 mm | – | 7 mm | inhibition zone (IZ) [8]: 6 mm
10 | NC(=S)N1N=C(c2ccc(Oc3nc(Oc4ccc(C5=NN(C(N)=S)C(c6cccc([N+](=O)[O-])c6)C5)cc4)nc(Oc4ccc(C5=NN(C(N)=S)C(c6cccc([N+](=O)[O-])c6)C5)cc4)n3)cc2)CC1c1cccc([N+](=O)[O-])c1 (stereo not given) | 13 mm | 10 mm | 16 mm | –
11 | Cc1ccc(/C=C/C(=O)c2ccc(Oc3nc(Oc4ccc(C(=O)/C=C/c5ccc(C)cc5)cc4)nc(Oc4ccc(C(=O)/C=C/c5ccc(C)cc5)cc4)n3)cc2)cc1 | 10 mm | 7 mm | 11 mm | –
12 | O=C1c2cccc3cccc(c23)C(=O)N1CCCn1c(CCN(CCc2nc3ccccc3n2CCCN2C(=O)c3cccc4cccc(c34)C2=O)CCc2nc3ccccc3n2CCCN2C(=O)c3cccc4cccc(c34)C2=O)nc2ccccc21 | – | – | – | pIC50 [9]: 3.82
13 | ClCCCN1CCN(c2nc(N3CCN(CCCl)CC3)nc(N3CCN(CCCl)CC3)n2)CC1 | – | – | – | pIC50 [10]: 6.21; pIC50 [11]: 6.21; pIC50 [12]: 6.21; pIC50 [13]: 6.21; pIC50 [14]: 6.21; pIC50 [15]: 4.73
14 | O=C(/C=C/c1ccc([N+](=O)[O-])cc1)c1ccc(Oc2nc(Oc3ccc(C(=O)/C=C/c4ccc([N+](=O)[O-])cc4)cc3)nc(Oc3ccc(C(=O)/C=C/c4ccc([N+](=O)[O-])cc4)cc3)n2)cc1 | 7 mm | – | 7 mm | inhibition zone (IZ) [8]: 6 mm; inhibition zone (IZ) [16]: 7 mm
